Patent US11103457B2, “Pharmaceutical compositions comprising safinamide” (Zambon S.P.A., priority 2017, dated 2021)

Assay: Sensory evaluation of the active ingredient safinamide (taste and irritation in the mouth)
Type: in vivo
Conditions: five minutes after rinsing with drinking water; 2 subjects
Method: In order to verify the unpleasant taste and irritation sensation of the active pharmaceutical ingredient, safinamide methanesulphonate, a test was performed in vivo by using an amount of safinamide methanesulfonate equal to 100 mg of safinamide base. Sensory evaluation was carried out by recruiting 2 subjects, who were asked to put said amount in the mouth by avoiding swallowing the mass. At the end of the test, participants were asked to rinse the mouth with plenty of drinking water; five minutes later their tongue and palate resulted to be still sore.

SMILES: C[C@H](NCc1ccc(OCc2cccc(F)c2)cc1)C(N)=O [safinamide methanesulfonate, (2S)-2-[[4-[(3-fluorophenyl)methoxy]phenyl]methylamino]propanamide]
- tongue and palate after rinsing the mouth: still sore
